Key:
[1] = xn = mol fraction of the nth substance listed; settings: 101 kPa, Liquid
[2] = refractive index (Na D-line) (dimensionless); xn = mol fraction of the nth substance listed; settings: 101 kPa, Liquid

COc1ccccc1 [anisole] + CCCCCC
Settings	mass density, 293.15 K [kg/m3]	mass density, 298.15 K [kg/m3]	mass density, 303.15 K [kg/m3]	refractive index, 293.15 K	refractive index, 298.15 K	refractive index, 303.15 K	viscosity, 293.15 K [mPa·s]	viscosity, 298.15 K [mPa·s]	viscosity, 303.15 K [mPa·s]
[1], x1 = 0.0993	688.1	683.56	678.98	–	–	–	0.3336	0.3159	0.305
[1], x1 = 0.1959	716.85	712.32	707.69	–	–	–	0.3594	0.3451	0.3257
[1], x1 = 0.3008	749.04	744.42	739.83	–	–	–	0.3971	0.3776	0.3565
[1], x1 = 0.3998	780.42	775.78	771.15	–	–	–	0.4376	0.4157	0.396
[1], x1 = 0.5045	814.71	810.08	805.39	–	–	–	0.4958	0.4701	0.4451
[1], x1 = 0.5936	844.84	840.19	835.52	–	–	–	0.5596	0.529	0.5002
[1], x1 = 0.6834	876.15	871.52	866.76	–	–	–	0.6392	0.6028	0.5681
[1], x1 = 0.7909	914.94	910.25	905.45	–	–	–	0.756	0.71	0.6685
[1], x1 = 0.8975	954.65	949.92	945.31	–	–	–	0.9044	0.8483	0.7899
[1], x1 = 1	993.81	989.15	984.42	–	–	–	1.085	1.017	0.9285
[2], x1 = 0.095	–	–	–	1.3873	1.3844	1.3819	–	–	–
[2], x1 = 0.193	–	–	–	1.399	1.3952	1.3931	–	–	–
[2], x1 = 0.288	–	–	–	1.4109	1.4081	1.4061	–	–	–
[2], x1 = 0.391	–	–	–	1.4243	1.4217	1.4197	–	–	–
[2], x1 = 0.5121	–	–	–	1.4408	1.4382	1.4365	–	–	–
[2], x1 = 0.5942	–	–	–	1.4525	1.45	1.4483	–	–	–
[2], x1 = 0.678	–	–	–	1.4651	1.4626	1.4609	–	–	–
[2], x1 = 0.779	–	–	–	1.4807	1.4783	1.4767	–	–	–
[2], x1 = 0.881	–	–	–	1.497	1.4946	1.4931	–	–	–
[2], x1 = 1	–	–	–	1.5161	1.5141	1.5129	–	–	–
